Experimental data reported in patent US20020160968A1, “Inhibitors of cellular niacinamide mononucleotide formation and their use in cancer therapy” (Klinge Pharma GmbH, priority 1999, published 2002).

Target: T1, niacinamide phosphoribosyltransferase (NAPRT, EC 2.4.2.12) (Homo sapiens, UniProt P43490)
T1 construct: protamine-treated cytoplasmic fraction of K-562 cells as the enzyme source; endogenous in cells; host or cells: K-562 (ATCC CCL 243), freeze-thaw lysate, 23,000 x g supernatant treated with protamine sulfate
T1 sequence (P43490 whole entry): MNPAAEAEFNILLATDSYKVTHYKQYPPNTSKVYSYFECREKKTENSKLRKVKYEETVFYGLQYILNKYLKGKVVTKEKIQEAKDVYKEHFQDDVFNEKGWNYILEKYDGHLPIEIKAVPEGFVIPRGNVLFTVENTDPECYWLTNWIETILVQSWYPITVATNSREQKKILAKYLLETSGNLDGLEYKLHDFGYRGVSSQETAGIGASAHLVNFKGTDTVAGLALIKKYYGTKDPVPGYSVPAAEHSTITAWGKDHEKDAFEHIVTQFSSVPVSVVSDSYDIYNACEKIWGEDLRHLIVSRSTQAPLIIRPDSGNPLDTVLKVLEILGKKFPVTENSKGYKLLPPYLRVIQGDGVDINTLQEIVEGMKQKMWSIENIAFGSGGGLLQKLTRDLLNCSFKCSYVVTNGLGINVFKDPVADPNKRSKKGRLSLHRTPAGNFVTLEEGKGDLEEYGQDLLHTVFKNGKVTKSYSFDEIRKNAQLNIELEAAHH
Assay: Niacinamide phosphoribosyltransferase (NAPRT) assay, protamine-treated cytoplasmic fraction of K-562 cells
Format: biochemical
Settings: for NAM: niacinamide mononucleotide formed, controls 79.1 and 71.8; for NA: niacinamide remaining, controls 389.7 and 397.0; for NAM [%] / NA [%]: portion of total radioactivity
Procedure: The effect of the compounds on the enzyme niacinamide phosphoribosyltransferase (NAPRT, EC 2.4.2.12) was investigated using for example protamine-treated cytoplasmic fraction of K-562 cells as the enzyme source according to the NAPRT assay described in the experimental part below. The investigated compounds were used in concentrations of 10 μM, except for K22387 and K22133 where the concentration was 1 μM.
The assay is based on the amount of radioactive incorporation from ^14C-labelled niacinamide into niacinamide mononucleotide (NAM). NAM is subsequently separated from niacinamide (NA) by thin-layer chromatography and its quantity is determined by autoradiography.
Niacinamide Phosphoribosyltransferase (NAPRT) Assay
The human cell line K-562 (chronic myelogenous leukaemia) is obtained from the American Type Culture Collection (ATCC CCL 243), Rockville, Md., USA. The K-562 cells are cultured in RPMI (Sigma, Deisenhofen, Germany, Product No.: R6504) containing 10% foetal calf serum (PAN Systems GmbH, Aidenbach, Germany), 2.2 g/l NaHCO3 (Merck, Darmstadt, Germany), 50,000 IU/l penicillin and 50 mg/l streptomycin (Sigma).
The K-562 cells are grown in RPMI supplemented with 10% FCS at 37° C. and 100% humidity in a 5% CO2 atmosphere up to a density of 2×10^6 cells per ml. Under these conditions, the cells grow logarithmically with a generation time of 24 hours. The cells are harvested by aspiration and centrifugation (250×g, 10 min, RT). Thereafter, the cells are washed at least 3 times by repeated centrifugation (250×g, 10 min, RT) and resuspension in CMF-PBS. After counting the cell suspension in a haematocytometer, the cells are spun into a tight pellet (390×g, […], RT) and the supernatant is carefully drawn off with a Pasteur pipette. The cells are then vortexed into suspension in sufficient lysis buffer to give a final concentration of 3×10^7 cells per ml. The suspension is frozen at −80° C. for at least one day and thawed slowly at room temperature to break up the cells. The breakage is usually greater than 95%, as determined by trypan blue exclusion. Following centrifugation at 23,000×g for 90 min at 0° C., the clarified supernatant is recovered on ice and 70 μl of 1% protamine sulfate is added per ml of supernatant. After 15 min on ice, the cloudy suspension is centrifuged a further 30 min at 23,000×g and 0° C. The final supernatant is stored in small aliquots at […] This supernatant contains about 950 to 1440 μg protein per ml. 120 to 140 μg protein per sample is used in the NAPRT assay (total assay volume: 0.5 ml).
The niacinamide phosphoribosyltransferase activity is determined in a reaction solution of 0.5 ml consisting of 5 mM MgCl2, 2 mM ATP, 0.5 mM PRPP, and [^14C]niacinamide (10^−5 M to 10^−7 M) in 50 mM Tris buffer pH 8.8 (final concentrations in the assay). The reaction is started by adding 100 to 120 μl cell extract. After incubation for 1 hour at 37° C., the enzyme reaction is stopped by adding cold niacinamide (50 μl of a 100 mM niacinamide solution per 0.5 ml reaction mixture) and by heating on a heating block (2 min, 105° C.). The precipitate is removed by centrifugation (2,500×g, 10 min, 4° C.) and the supernatant is collected into a […] polypropylene vial with screw cap and stored at −20° C. until further analysis. A 10 μl aliquot is taken from the supernatant to determine the total amount of radioactivity.
The ^14C-labelled components of the reaction mixture are separated and identified using thin-layer chromatography (TLC). 5 to 7.5 μl of each sample is transferred to a cellulose TLC foil using an automated sample applicator. The cellulose foil is developed using 1 M NH4 acetate:ethanol (3:7) as solvent. The chromatogram is run with added non-radioactive standards of NAD, NADP, NAM and niacinamide, and the spots were identified by UV absorption (RF values see Table 7). For autoradiography, the chromatogram is exposed to an imaging plate BAS-IIIs in a hypercassette for at least two days. […]

[1] = compound 10 μM, controls 16.88 and 15.32
[2] = compound 10 μM, controls 83.12 and 84.68

SMILES	NAM (compound 10 μM) [pmol/h]	NA (compound 10 μM) [pmol/h]	NAM [%] [1] [%]	NA [%] [2] [%]	NAM (compound 1 μM) [pmol/h]	NA (compound 1 μM) [pmol/h]	NA [%] (compound 1 μM)	NAM [%] (compound 1 μM)
O=C(NCCCCC1CCN(S(=O)(=O)c2ccc3ccccc3c2)CC1)Nc1cccnc1 [Compound K22365, 1-{4-[1-(naphthalene-2-sulfonyl)-piperidine-4-yl)-butyl}-3-pyridine-3-yl-urea]	0.0	468.8	0.00	100.00				
Cn1c(CCNC(=O)/C=C/c2cccnc2)ccc1CN1CCN(C(c2ccccc2)c2ccccc2)CC1 [Compound K22350, N-{2-[5-(4-benzhydryl-piperazine-1-yl-methyl)-1-methyl-1H-pyrrole-2-yl]-ethyl}-3-pyridine-3-yl-acrylamide]	0.0	468.8	0.00	100.00				
NC(Cc1ccc(O)c(N=Nc2ccccc2C(=O)N2CCC(CCCCNC(=O)/C=C/c3cccnc3)CC2)c1)C(=O)O (stereo not shown) [Compound K22408, 2-amino-3-[4-hydroxy-3-(2-{4-[4-(3-pyridine-3-yl-acryloyl-amino)-butyl]-piperidine-1-carbonyl}-phenylazo)-phenyl]-propanoic acid trihydrate]	0.0	468.8	0.00	100.00				
O=C(NCCCCC1CCN(C(=O)N2c3ccccc3CCc3ccccc32)CC1)Nc1cccnc1 [Compound K22387, 1-{4-[1-(1,11-dihydro-dibenzene[b,f]azepine-5-carbonyl)-piperidine-4-yl]-butyl}-3-pyridine-3-yl-urea]					0.0	468.8	100.00	0.00
